# Measurements taken from PMC10141580, “Cyclic Dichalcogenides Extend the Reach of Bioreductive Prodrugs to Harness Thiol/Disulfide Oxidoreductases: Applications to seco-Duocarmycins Targeting the Thioredoxin System” (ACS Central Science, 2023).
# Tested on: MEF TrxR1-ko cells
# Assay: Resazurin cytotoxicity assay, MEF TrxR1 knockout, 72 h
# Details: MEF TrxR1-ko vs wt (fl/fl)
# Description: A TrxR1 knockout (ko) in mouse embryonic fibroblast (MEF) cells is, however, accessible. We compared its prodrug sensitivity to that of its parental line[49] (wild-type, wt), on the basis that TrxR1-ko should leave most Trx1 in its oxidized state (only a fraction of it can be maintained in the reduced state by alternative reductants such as Grx2),[50] so prodrugs relying on the cytosolic thioredoxin system (Trx1/TrxR1) for most of their bioreductive activation in long-term assays will have lower potency in TrxR1-ko cells.
# MEF cells (ko vs. wt) we r e treated with prodrugs of the CBI-TMI and CBI-AZI series for
# 72 h at concentrations from 10 pm t o 3 0 µM at 27 incremental single concentrations depending on expected
# potencies of the constructs. Data from at least 3 individual experiments was combined (no error bars shown for
# clarity) for each cell line.
row,Structure (SMILES),fold change of potency wt → ko
1,COc1cc2cc(C(=O)N3CC(CCl)c4c3cc(OC(=O)N3CCN(C)C5CSSCC53)c3ccccc43)[nH]c2c(OC)c1OC (mixture of isomers) [Me-SS66T-CBI-TMI],2 ×
2,COc1cc2cc(C(=O)N3C[C@@H](CCl)c4c3cc(OC(=O)N3CCN(C(=O)CCC(=O)N5CCN(C)CC5)[C@H]5CSSC[C@H]53)c3ccccc43)[nH]c2c(OC)c1OC [P-SS66C-CBI-TMI],3 ×
3,COc1cc2cc(C(=O)N3CC(CCl)c4c3cc(OC(=O)N3CCN(C)C5CSSCC53)c3ccccc43)[nH]c2c(OC)c1OC (mixture of isomers) [Me-SS66C-CBI-TMI],4 ×
